Laboratory results published in ChEMBL document CHEMBL5226384, “Total Syntheses, Absolute Configurations, and Cytotoxicity Evaluation of Ugonstilbenes A, B, and C from the Rhizomes of Helminthostachys zeylanica” (J Nat Prod, 2023).
pIC50: −log10 of the molar value.

What was measured:
[1] = Cytotoxicity against fibroblast (unknown origin) cells assessed as reduction in cell viability incubated for 6 hrs by SRB assay; assay type: toxicity, cell-based
HT-29 = test: Cytotoxicity against human HT-29 cells assessed as reduction in cell viability incubated for 6 hrs by SRB assay; assay type: functional, cell-based; details: HT-29, 6 h
MCF7 = test: Cytotoxicity against human MCF7 cells assessed as reduction in cell viability incubated for 6 hrs by SRB assay; assay type: functional, cell-based; details: MCF7, 6 h
CCRF-CEM = test: Cytotoxicity against human CCRF-CEM cells assessed as reduction in cell viability incubated for 6 hrs by SRB assay; assay type: functional, cell-based
NCI-H460 = test: Cytotoxicity against human NCI-H460 cells assessed as reduction in cell viability incubated for 6 hrs by SRB assay; assay type: functional, cell-based; details: NCI-H460, 6 h

Molecule `CC1=CCCC(C)(C)[C@@H]1Cc1cc(/C=C/c2cc(O)cc(O)c2)ccc1O` has an IC50 at 6 h [1] of 7100 nM, a pIC50 (HT-29) of 5.28 and a pIC50 (MCF7) of 5.39. For the same molecule, the pIC50 (CCRF-CEM) was 5.52 and the pIC50 (NCI-H460) was 5.26.
With `CC1=CCCC(C)(C)[C@H]1Cc1cc(/C=C/c2cc(O)cc(O)c2)ccc1O` the IC50 at 6 h [1] was 7400 nM, the pIC50 (HT-29) was 5.30 and the pIC50 (MCF7) was 5.36. The pIC50 (CCRF-CEM) was 5.55 and the pIC50 (NCI-H460) was 5.22.
Work on `CC1(C)CCC[C@]2(C)Oc3cc(/C=C/c4ccc(O)cc4)cc(O)c3C[C@H]12` yielded an IC50 at 6 h [1] of 6600 nM, a pIC50 (HT-29) of 5.44 and a pIC50 (MCF7) of 5.72. The pIC50 (CCRF-CEM) was 5.77 and the pIC50 (NCI-H460) was 5.85.
`CC1(C)CCC[C@]2(C)Oc3ccc(/C=C/c4cc(O)cc(O)c4)cc3C[C@H]12` gave an IC50 at 6 h [1] of 8000 nM, a pIC50 (HT-29) of 5.48 and a pIC50 (MCF7) of 5.77. The pIC50 (CCRF-CEM) was 5.85 and the pIC50 (NCI-H460) was 5.66.
`CC1=CCCC(C)(C)[C@H]1Cc1c(O)cc(/C=C/c2ccc(O)cc2)cc1O` showed an IC50 at 6 h [1] of 6600 nM, a pIC50 (HT-29) of 5.60 and a pIC50 (MCF7) of 5.77. The pIC50 (CCRF-CEM) was 6.09 and the pIC50 (NCI-H460) was 5.77.
`CC1(C)CCC[C@@]2(C)Oc3cc(/C=C/c4ccc(O)cc4)cc(O)c3C[C@@H]12` gave an IC50 at 6 h [1] of 7100 nM, a pIC50 (HT-29) of 5.66 and a pIC50 (MCF7) of 5.85. The pIC50 (CCRF-CEM) was 5.96 and the pIC50 (NCI-H460) was 5.77.
`CC1=CCCC(C)(C)[C@@H]1Cc1c(O)cc(/C=C/c2ccc(O)cc2)cc1O` gave an IC50 at 6 h [1] of 6600 nM, a pIC50 (HT-29) of 5.36 and a pIC50 (MCF7) of 5.10. It also gave a pIC50 (CCRF-CEM) of 6.57 and a pIC50 (NCI-H460) of 5.77.
Work on `CC1(C)CCC[C@@]2(C)Oc3ccc(/C=C/c4cc(O)cc(O)c4)cc3C[C@@H]12` yielded an IC50 at 6 h [1] of 6900 nM, a pIC50 (HT-29) of 5.55 and a pIC50 (MCF7) of 5.55. For the same molecule, the pIC50 (CCRF-CEM) was 5.85 and the pIC50 (NCI-H460) was 5.60.
Molecule `COc1cccc2c1C(=O)c1c(O)c3c(c(O)c1C2=O)C[C@@](O)(C(=O)CO)C[C@@H]3O[C@H]1C[C@H](N)[C@H](O)[C@H](C)O1` [DOXORUBICIN] has an IC50 at 6 h [1] of 67000 nM, a pIC50 (HT-29) of 6.92 and a pIC50 (MCF7) of 6.57. The pIC50 (CCRF-CEM) was 7.05 and the pIC50 (NCI-H460) was 8.00.
For `Oc1ccc(/C=C/c2cc(O)cc(O)c2)cc1` [RESVERATROL], the IC50 at 6 h [1] was 218000 nM, the pIC50 (HT-29) was 3.92 and the pIC50 (MCF7) was 3.87. It also gave a pIC50 (CCRF-CEM) of 6.05 and a pIC50 (NCI-H460) of 4.24.
